From patent publication US9624228B2, “Inhibitors of ERK and methods of use” (KURA ONCOLOGY, INC., priority 2013, dated 2017)

Each compound was assayed against ERK2 enzyme (Homo sapiens (Human), UniProt P28482) (assay: Inhibition assay of ERK (Z'-LYTE kinase assay, Ser/Thr 3 peptide substrate)). Details: In vitro ERK2 enzyme, 100 μM ATP.
Format: biochemical

ERK2 enzyme, sequence (P28482 whole entry): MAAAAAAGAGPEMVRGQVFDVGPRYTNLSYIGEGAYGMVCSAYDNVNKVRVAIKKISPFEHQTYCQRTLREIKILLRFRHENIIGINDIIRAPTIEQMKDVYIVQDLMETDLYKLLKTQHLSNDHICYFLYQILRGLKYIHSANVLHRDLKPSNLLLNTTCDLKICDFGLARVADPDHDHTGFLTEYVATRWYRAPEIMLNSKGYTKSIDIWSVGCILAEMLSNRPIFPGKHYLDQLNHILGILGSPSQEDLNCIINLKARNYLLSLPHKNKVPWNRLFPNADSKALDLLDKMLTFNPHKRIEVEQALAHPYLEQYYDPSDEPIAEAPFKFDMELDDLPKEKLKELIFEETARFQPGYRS

Row | SMILES | IC50 [nM]
1 | Cc1cc(-c2n[nH]c3cc4c(cc23)CN([C@@H](C)c2cccc(Cl)c2)C(=O)N4)ccn1 [Compound 28] | 50 to 250
2 | COc1cccc(F)c1CN1CCC(N2Cc3cc4c(-c5ccnnc5)n[nH]c4cc3NC2=O)CC1 [Compound 116] | 50 to 250
3 | Cc1cc(-c2n[nH]c3cc4c(cc23)CN([C@@H]2CCN(Cc3c(F)cccc3F)C2)C(=O)N4)ccn1 [Compound 147] | 50 to 250
4 | Cc1cc(-c2n[nH]c3cc4c(cc23)CN([C@@H]2CCCN(Cc3ccc(F)cc3)C2)C(=O)N4)ccn1 [Compound 151] | < 50
5 | Cc1cc(-c2n[nH]c3cc4c(cc23)CN([C@@H]2CCCN(Cc3ccccc3Cl)C2)C(=O)N4)ccn1 [Compound 158] | < 50
6 | Cc1cc(-c2n[nH]c3cc4c(cc23)CN([C@@H]2CCCN(Cc3ccc(F)c(Cl)c3)C2)C(=O)N4)ccn1 [Compound 134] | < 50
7 | Cc1cc(-c2n[nH]c3cc4c(cc23)CN([C@@H]2CCCN(Cc3cccnc3C)C2)C(=O)N4)ccn1 [Compound 170] | < 50
8 | Cc1cc(-c2n[nH]c3cc4c(cc23)CN([C@@H]2CCCN(C(=O)c3ccccc3)C2)C(=O)N4)ccn1 [Compound 172] | < 50
9 | Cc1cc(-c2n[nH]c3cc4c(cc23)CN([C@@H]2CCCN(CC3(C)CC3)C2)C(=O)N4)ccn1 [Compound 182] | 50 to 250
10 | Cc1cc(-c2n[nH]c3cc4c(cc23)CN(C2CCN(CC3CC3)CC2)C(=O)N4)ccn1 [Compound 69] | 50 to 250
11 | Cc1cc(-c2n[nH]c3cc4c(cc23)CN([C@H](C)c2ccc(F)cc2)C(=O)N4)ccn1 [Compound 5] | 50 to 250
12 | Cc1cc(-c2n[nH]c3cc4c(cc23)CN([C@@H]2CCCN(Cc3cc(F)ccc3F)C2)C(=O)N4)ccn1 [Compound 187] | < 50
13 | Cc1cc(-c2n[nH]c3cc4c(cc23)CN(CCNCc2ccccc2)C(=O)N4)ccn1 [Compound 149] | < 50
14 | Cn1cc(-c2n[nH]c3cc4c(cc23)CN(Cc2ccc(F)c(Cl)c2)C(=O)N4)cn1 [Compound 31] | < 50
15 | Cc1cc(-c2n[nH]c3cc4c(cc23)CN([C@@H]2CCCN(Cc3cnccc3C)C2)C(=O)N4)ccn1 [Compound 183] | 50 to 250
16 | Cc1cc(-c2n[nH]c3cc4c(cc23)CN([C@@H]2CCCN(C3CCCCC3)C2)C(=O)N4)ccn1 [Compound 194] | 50 to 250
17 | O=C1Nc2cc3[nH]nc(-c4ccnnc4)c3cc2CN1Cc1ccc(F)cc1 [Compound 97] | < 50
18 | COc1ncc(-c2n[nH]c3cc4c(cc23)CCN(Cc2ccc(F)cc2)C(=O)N4)cn1 [Compound 130] | 50 to 250
19 | COc1ncc(-c2n[nH]c3cc4c(cc23)CN(Cc2cccc(C(F)(F)F)c2)C(=O)N4)cn1 [Compound 119] | < 50
20 | Cc1cc(-c2n[nH]c3cc4c(cc23)CN(Cc2cscn2)C(=O)N4)ccn1 [Compound 47] | < 50
21 | O=C1Nc2cc3[nH]nc(-c4ccncc4)c3cc2CN1Cc1cccc(Cl)c1 [Compound 3] | < 50
22 | O=C1Nc2cc3[nH]nc(-c4cn[nH]c4)c3cc2CN1Cc1ccc(F)c(Cl)c1 [Compound 48] | < 50
23 | Cc1cc(-c2n[nH]c3cc4c(cc23)CN([C@@H]2CCN(Cc3ccccc3)C2)C(=O)N4)ccn1 [Compound 146] | < 50

Row | SMILES | IC50 [nM]
24 | O=C1Nc2cc3[nH]nc(-c4ccccn4)c3cc2CN1Cc1cccc(Cl)c1 [Compound 91] | 50 to 250
25 | Cc1cc(-c2n[nH]c3cc4c(cc23)CN(Cc2ccc(CC#N)cc2)C(=O)N4)ccn1 [Compound 65] | < 50
26 | Cc1cc(-c2n[nH]c3cc4c(cc23)CN([C@@H]2CCCN(Cc3csc(C)n3)C2)C(=O)N4)ccn1 [Compound 140] | < 50
27 | Cc1cc(-c2n[nH]c3cc4c(cc23)CN(CCN(C)C)C(=O)N4)ccn1 [Compound 46] | 50 to 250
28 | Cc1cc(-c2n[nH]c3cc4c(cc23)CN([C@H](C)c2ccccc2)C(=O)N4)ccn1 [Compound 2, (R)-3-(2-methylpyridin-4-yl)-6-(1-phenylethyl)-5,6-dihydro-1H-pyrazolo[4,3-g]quinazolin-7(8H)-one] | < 50
29 | Cc1cc(-c2n[nH]c3cc4c(cc23)CN([C@@H]2CCCN(C(C)c3cccc(Cl)c3)C2)C(=O)N4)ccn1 (stereo partly drawn) [Compound 180] | 50 to 250
30 | COc1ccc(-c2n[nH]c3cc4c(cc23)CN(Cc2cccc(Cl)c2)C(=O)N4)cn1 [Compound 75] | < 50
31 | COc1ccc(-c2n[nH]c3cc4c(cc23)CN(Cc2ccc(F)c(Cl)c2)C(=O)N4)cn1 [Compound 36] | < 50
32 | Cc1cc(-c2n[nH]c3cc4c(cc23)CN([C@@H]2CCCN(CC3CC3)C2)C(=O)N4)ccn1 [Compound 62] | 50 to 250
33 | Cc1cc(-c2n[nH]c3cc4[nH]c(=O)n(Cc5cccc(Cl)c5)c(=O)c4cc23)ccn1 [Compound 24] | 50 to 250
34 | Cc1cc(-c2n[nH]c3cc4c(cc23)CN([C@@H]2CCCN(Cc3cnn(C)c3)C2)C(=O)N4)ccn1 [Compound 133] | < 50
35 | COCCOCCN1Cc2cc3c(-c4ccnc(C)c4)n[nH]c3cc2NC1=O [Compound 45] | < 50
36 | Cc1cc(-c2n[nH]c3cc4c(cc23)CN([C@@H]2CCCN(Cc3ncccc3C)C2)C(=O)N4)ccn1 [Compound 168] | < 50
37 | COc1ccc(-c2n[nH]c3cc4c(cc23)CN(CCc2ccc(F)cc2)C(=O)N4)cn1 [Compound 79] | < 50
38 | Cc1cc(-c2n[nH]c3cc4c(cc23)CN([C@@H]2CCCN(CCc3ccc(F)cc3)C2)C(=O)N4)ccn1 [Compound 167] | 50 to 250
39 | Cc1cc(-c2n[nH]c3cc4c(cc23)CN(C2CN(CCc3ccccc3)C2)C(=O)N4)ccn1 [Compound 192] | 50 to 250
40 | CS(=O)(=O)c1ccc(-c2n[nH]c3cc4c(cc23)CN(Cc2cccc(Cl)c2)C(=O)N4)cc1 [Compound 89] | < 50
41 | CCC(=O)NCCN1Cc2cc3c(-c4cnc(OC)nc4)n[nH]c3cc2NC1=O [Compound 106] | 50 to 250
42 | CCC(c1ccccc1)c1cc2cc3c(-c4ccnc(C)c4)n[nH]c3cc2[nH]c1=O (stereo not drawn) [Compound 64] | < 50
43 | COc1ncc(-c2n[nH]c3cc4c(cc23)CN(CCc2cccc(Cl)c2)CC(=O)N4)cn1 [Compound 107] | 250 to 1000
44 | Cc1cc(-c2n[nH]c3cc4c(cc23)CN(Cc2ccc(F)cc2F)C(=O)N4)ccn1 [Compound 11] | < 50
45 | Cc1cc(-c2n[nH]c3cc4[nH]c(=O)n(Cc5ccccc5)c(=O)c4cc23)ccn1 [Compound 27] | < 50

Same assay, conditions: In vitro, ERK2 enzyme 0.47 ng/μL, 100 μM ATP

Row | SMILES | IC50 [nM]
46 | Cc1cc(-c2n[nH]c3cc4c(cc23)CN([C@@H]2CCN(C)C2)C(=O)N4)ccn1 [Compound 255] | < 50
47 | COc1ncc(-c2n[nH]c3cc4c(cc23)CN([C@@H]2CCN(CC(F)(F)F)C2)C(=O)N4)cn1 [Compound 276] | < 50
48 | Cc1cc(-c2n[nH]c3cc4c(cc23)CN([C@@H]2CN(CC(F)F)C[C@H]2c2ccccc2)C(=O)N4)ccn1 (mixture of isomers) [Compound 362] | < 50
49 | Cc1cc(-c2n[nH]c3cc4c(cc23)CN([C@@H]2CN(CC(F)(F)F)C[C@H]2c2ccccc2)C(=O)N4)cc(C)n1 [Compound 339] | < 50
50 | Cc1cc(-c2n[nH]c3cc4c(cc23)CN([C@H]2CCN(CC(F)(F)F)C2)C(=O)N4)cc(C)n1 [Compound 310] | < 50
51 | Cc1cc(-c2n[nH]c3cc4c(cc23)CN([C@@H]2CCN(CCC(C)C)C2)C(=O)N4)ccn1 [Compound 207] | 50 to 250
52 | CC(c1ccccc1)c1cc2cc3c(-c4ccc(=O)n(C)c4)n[nH]c3cc2[nH]c1=O (stereo not drawn) [Compound 347] | < 50
53 | C[C@H](c1ccccc1)c1cc2cc3c(NC4CCOCC4)n[nH]c3cc2[nH]c1=O [Compound 357] | < 50
54 | Cc1cc(-c2n[nH]c3cc4c(cc23)CN(Cc2cccc(C(F)(F)F)c2)C(=O)N4)ccn1 [Compound 240] | < 50
55 | Cc1cc(-c2n[nH]c3cc4c(cc23)CN([C@@H]2CCCN(Cc3sccc3F)C2)C(=O)N4)ccn1 [Compound 291] | < 50
56 | Cn1cc(-c2n[nH]c3cc4c(cc23)CN([C@@H]2CN(CC(F)(F)F)C[C@H]2c2ccccc2)C(=O)N4)cn1 [Compound 352] | < 50
57 | COc1ccc(-c2n[nH]c3cc4c(cc23)CN([C@H]2CCCN(Cc3ccccc3)C2)C(=O)N4)cn1 [Compound 368] | 50 to 250
58 | Cc1cc(-c2n[nH]c3cc4[nH]c(=O)c(C5CCCN(Cc6cc(F)ccc6F)C5)cc4cc23)ccn1 (stereo not drawn) [Compound 336] | < 50
59 | Cc1ncccc1-c1n[nH]c2cc3[nH]c(=O)c(C(C)c4ccccc4)cc3cc12 (stereo not drawn) [Compound 335] | < 50
60 | Cc1cc(-c2n[nH]c3cc4c(cc23)CN(CC2CCCCC2)C(=O)N4)ccn1 [Compound 213] | < 50
61 | Cc1cc(-c2n[nH]c3cc4c(cc23)CN(CC2CCOCC2)C(=O)N4)ccn1 [Compound 211] | < 50
62 | Cc1cc(-c2n[nH]c3cc4c(cc23)CN(C2CCC2)C(=O)N4)ccn1 [Compound 243] | < 50
63 | COc1ccc(-c2n[nH]c3cc4c(cc23)CN([C@@H]2CN(C)C[C@H]2c2ccccc2)C(=O)N4)cn1 (mixture of isomers) [Compound 353] | < 50
64 | COc1ncc(-c2n[nH]c3cc4c(cc23)CN(C2CN(Cc3ccccc3)CC(F)(F)C2)C(=O)N4)cn1 (stereo not drawn) [Compound 320] | 50 to 250
65 | Cc1cc(-c2n[nH]c3cc4c(cc23)CN(CC2CCCC2)C(=O)N4)ccn1 [Compound 212] | < 50
66 | Cc1cc(-c2n[nH]c3cc4c(cc23)CN(C2CCCC2)C(=O)N4)cc(C)n1 [Compound 239] | < 50
67 | Cc1cc(-c2n[nH]c3cc4c(cc23)CN([C@H]2CN(C(C)C)C[C@@H]2c2ccccc2)C(=O)N4)ccn1 [Compound 296] | 50 to 250
68 | Cc1cc(-c2n[nH]c3cc4c(cc23)CN([C@@H]2CCCN(C3CCCC3)C2)C(=O)N4)ccn1 [Compound 215] | 50 to 250
69 | COc1ncc(-c2n[nH]c3cc4c(cc23)CN([C@H]2CCCN(Cc3ccccc3)C2)C(=O)N4)cn1 [Compound 365] | 50 to 250
70 | COc1ccc(-c2n[nH]c3cc4c(cc23)CN([C@H]2CCCN(Cc3ccc(F)cc3F)C2)C(=O)N4)cn1 [Compound 369] | 250 to 1000
71 | COc1ncc(-c2n[nH]c3cc4c(cc23)CN([C@@H]2CCCN(Cc3cccs3)C2)C(=O)N4)cn1 [Compound 295] | < 50
72 | Cn1nccc1-c1n[nH]c2cc3c(cc12)CN([C@@H]1CCN(CC(F)(F)F)C1)C(=O)N3 [Compound 265] | 50 to 250
